Test results published in PubChem BioAssay (NCI).
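Test compounds were applied to cells in 96-well plates for 48 hours at 5 doses. The concentration for full growth arrest is given as TGI.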

Legend:
Assay in all cases: inhibition of tumour cell growth, NCI panel, 48 h
786-0 renal = test system: 786-0 renal
A498 renal = test system: A498 renal
A549 NSCLC = test system: A549 NSCLC
ACHN renal = test system: ACHN renal
CAKI-1 renal = test system: CAKI-1 renal
CCRF-CEM leukemia = test system: CCRF-CEM leukemia
COLO 205 colon = test system: COLO 205 colon
DU-145 prostate = test system: DU-145 prostate
EKVX NSCLC = test system: EKVX NSCLC
HCC-2998 colon = test system: HCC-2998 colon
HCT-116 colon = test system: HCT-116 colon
HCT-15 colon = test system: HCT-15 colon
HL-60(TB) leukemia = test system: HL-60(TB) leukemia
HOP-62 NSCLC = test system: HOP-62 NSCLC
HOP-92 NSCLC = test system: HOP-92 NSCLC
HS 578T breast = test system: HS 578T breast
HT29 colon = test system: HT29 colon
IGROV1 ovarian = test system: IGROV1 ovarian
K-562 leukemia = test system: K-562 leukemia
KM12 colon = test system: KM12 colon
LOX IMVI melanoma = test system: LOX IMVI melanoma
M14 melanoma = test system: M14 melanoma
MALME-3M melanoma = test system: MALME-3M melanoma
MCF7 breast = test system: MCF7 breast
MDA-MB-231 breast = test system: MDA-MB-231 breast
MDA-MB-435 = test system: MDA-MB-435
MDA-N = test system: MDA-N
MOLT-4 leukemia = test system: MOLT-4 leukemia
NCI-H226 lung = test system: NCI-H226 lung
NCI-H23 lung = test system: NCI-H23 lung
NCI-H460 lung = test system: NCI-H460 lung
NCI-H522 lung = test system: NCI-H522 lung
NCI/ADR-RES ovarian = test system: NCI/ADR-RES ovarian
OVCAR-3 ovarian = test system: OVCAR-3 ovarian
OVCAR-4 ovarian = test system: OVCAR-4 ovarian
OVCAR-5 ovarian = test system: OVCAR-5 ovarian
OVCAR-8 ovarian = test system: OVCAR-8 ovarian
PC-3 prostate = test system: PC-3 prostate
RPMI-8226 leukemia = test system: RPMI-8226 leukemia
RXF 393 renal = test system: RXF 393 renal
SF-268 CNS = test system: SF-268 CNS
SF-539 CNS = test system: SF-539 CNS
SK-MEL-2 melanoma = test system: SK-MEL-2 melanoma
SK-MEL-28 melanoma = test system: SK-MEL-28 melanoma
SK-MEL-5 melanoma = test system: SK-MEL-5 melanoma
SK-OV-3 ovarian = test system: SK-OV-3 ovarian
SN12C renal = test system: SN12C renal
SNB-19 CNS = test system: SNB-19 CNS
SNB-75 CNS = test system: SNB-75 CNS
SR leukemia = test system: SR leukemia
SW-620 colon = test system: SW-620 colon
T-47D breast = test system: T-47D breast
TK-10 renal = test system: TK-10 renal
U251 CNS = test system: U251 CNS
UACC-257 melanoma = test system: UACC-257 melanoma
UO-31 renal = test system: UO-31 renal
BT-549 breast = test system: BT-549 breast
SF-295 CNS = test system: SF-295 CNS
UACC-62 melanoma = test system: UACC-62 melanoma

Measured: TGI

C=CCNC(=O)NNC(O)(C(=O)OCC)C(F)(F)F (configuration not stated)
not listed: BT-549 breast | SF-295 CNS | UACC-62 melanoma
> 100 µM: all other assays above

COc1c(-c2ccccc2)oc2c(CP(=O)(OC)OC)cccc2c1=O
5.11 µM: CAKI-1 renal
53.8 µM: RPMI-8226 leukemia
41.9 µM: UO-31 renal
not listed: ACHN renal | HCT-15 colon | HL-60(TB) leukemia | HOP-92 NSCLC | HS 578T breast | HT29 colon | KM12 colon | LOX IMVI melanoma | NCI-H226 lung | NCI-H460 lung | NCI/ADR-RES ovarian | OVCAR-4 ovarian | OVCAR-8 ovarian | SF-268 CNS | SK-MEL-28 melanoma | SNB-19 CNS | SNB-75 CNS | SW-620 colon
> 100 µM: all other assays above

CCOC(=O)c1c(O)cc(=O)[nH]c1N1CCOCC1
not listed: HL-60(TB) leukemia | HS 578T breast | MALME-3M melanoma | MDA-MB-231 breast | NCI-H522 lung | OVCAR-4 ovarian | RXF 393 renal | SF-268 CNS | TK-10 renal
> 100 µM: all other assays above
